Measurements: patent publication US6166085A, “Method of producing analgesia” (priority 1996, dated 2000)
“Also recorded” adds a separate entry of the source. Where two headings read alike, the source gives them in different places.

Key:
[1] = test system: allodynia; assay: Tactile allodynia (paw withdrawal threshold, % MPE) in L5/L6 spinal nerve ligated rats, Example 3; format: in vivo, Harlan Sprague-Dawley rats
Description: Male Harlan Sprague-Dawley rats were used (100-200 g). Rats were housed 2-3 to a cage with corn cob bedding and Purina rat chow and water ad libitum, in a standard facility with a 12 h/12 h day/night cycle. After surgical procedures involving chronic indwelling catheter insertion, animals were housed singly to prevent catheter damage.
Rats were allowed to recover 5-7 days before further testing or surgeries.
The catheters were 9 cm in intrathecal length and terminated near the lumbar enlargement. The rostral 3 cm of catheter was tunneled under the skin to externalize between the ears. Rats with neurologic deficits were discarded.
For intravascular access, external jugular catheters were fashioned from PE-50 tubing and inserted into an external jugular vein under halothane/oxygen anesthesia. Arterial catheters were also fashioned from PE-50 with a small bouton 1 cm from the intravascular end for suture securing; they were inserted into a carotid artery, taking care to spare the surrounding nerves. All catheters were flushed with heparinized saline (10 U/ml) and tunneled subcutaneously to emerge at the posterior base of the neck, and capped when not in use.
Monoethylglycinexylidide (MEGX) and 3-hydroxy monoethyl-glycinexylidide (3-OH MEGX) were dissolved in physiologic saline; 3-hydroxylidocaine (3-OH L) was dissolved in DMSO for intravenous administration.
Intravenous drugs were delivered to awake, unrestrained rats by slow infusion using a syringe pump (Harvard apparatus 22). Intrathecal drugs were delivered to awake, briefly restrained rats in a volume of 10 μl, followed by 10 μl of vehicle flush, using a calibrated tubing extension with a 30-gauge adapter fitting the implanted intrathecal catheter, attached to a geared Hamilton 100 μl glass syringe. IT drug delivery was monitored by observing the advancement of a small air bubble down the tubing.
Rats were placed in a plastic cage with an open wire mesh bottom and allowed to accommodate for approximately fifteen minutes. […] In brief, von Frey hairs were sequentially applied using an up-and-down paradigm to the left mid-plantar hindpaw with sufficient force to cause slight filament buckling. Positive responses were noted if the paw was sharply withdrawn. […] Otherwise, PWT were calculated by noting the stimulus level at which the first change in behavior occurred, collecting four additional responses to the continued up-and-down oscillation of stimulus presentation around the response threshold, and interpolating the 50% response threshold. For some comparisons, raw thresholds were converted to percent of maximum possible effect (% MPE), designating pre-treatment PWT (baselines) as 0% effect, and assigning a cutoff value of 100% effect to thresholds ≥15 g: therefore, % MPE values near 100 indicate normal mechanical thresholds (i.e., at or near 15 g), whereas values near 0 indicate allodynia. The following equation was used to compute % MPE:
% MPE=new threshold(g)-baseline threshold(g)×100/ 15 grams--baseline
Plasma drug levels and PWT were correlated using linear regression. Serially measured PWT and % MPE were compared using repeated measures ANOVA with post-hoc testing.

[2] = test system: sciatic nerve compound action potential; assay: Rat sciatic nerve compound action potential in vivo, direct application; set-up: species or system Harlan Sprague Dawley rats; conditions: for blockade of sciatic nerve compound action potential (in words): direct application, metabolites 5 mg, 10 min
Description: Male Harlan Sprague Dawley rats (300-350 g) were anesthetized with pentobarbital/diazepam. The sciatic nerves were sequentially and bilaterally exposed by sharp/blunt dissection from the popliteal region proximally. Electrodes were placed at the sciatic notch (stimulating), and the interossei (recording); a grounding electrode was applied remote from the field. Baseline compound action potential (CAP) (A alpha/beta) wave heights (mV) in response to stimulation 1× per minute were recorded for ten minutes to obtain a stable reference. One drug/vehicle solution was applied per nerve, at mid-nerve (mid-thigh) level, in a volume of 250 μl, and compound action potential wave height then was recorded 1× per minute for ten minutes after application.

[3] = Metabolism of 14C lidocaine after IV administration, HPLC profile; format: in vivo, Harlan Sprague-Dawley and Dark Agouti rats; conditions: 14C lidocaine IV, N=2
[4] = test system: allodynia; conditions: Chaplan et al. 1995, IV or IT, cited from earlier work
[5] = test system: allodynia; assay: Susceptibility of rat strains to anti-allodynia effects of lidocaine; format: in vivo, Sprague-Dawley versus Dark Agouti rats; conditions: FIG. 11 legend

Row | SMILES | suppression of allodynia after IT administration (summary) ([1]; IT) | MPE, IT 67 μg ([1]; IT, dose printed 67 μ, P<0.0001) [%] | effect on allodynia, IV (in words) ([1]; IV infusion, 20 mg/kg) | activity as metabolite with regard to allodynia suppression ([1]; rat, in vivo) | local anesthetic (sodium channel blocking) activity ([2]; FIG. 12 legend) | blockade of sciatic nerve compound action potential (in words) ([2]; lidocaine 2.5 mg) | activity in ranking of CAP blockade (Lido>MEGS>3-OH L>>3-OH MEGX=0) ([2]; metabolites at 5 mg, lidocaine 2.5 mg) | glucuronidated 3-OH MEGX in elution profile, DA rats ([3]; Dark Agouti) | glucuronidated 3-OH MEGX in elution profile, SD rats ([3]; Sprague-Dawley) | anti-allodynic effect of lidocaine [4] | anti-allodynic effect of lidocaine ([4]; listed as Lidocaine) | effect on allodynia / PWT, IT 500 μg (in words) ([1]; IT, 500 μg, after recovery of motor function) | susceptibility to anti-allodynia effects of lidocaine, Dark Agouti rats [5] | susceptibility to anti-allodynia effects of lidocaine, Sprague-Dawley rats [5]
1 | CCNCC(=O)Nc1c(C)ccc(O)c1C [3-hydroxy MEGX, 2-(ethylamino)-N-(3-hydroxy-2,6-dimethylphenyl) acetamide] | suppressed allodynia after IT administration | 63±17 | did not show a significant effect in suppressing allodynia | active metabolite with regard to allodynia suppression | appears to lack local anesthetic (sodium channel blocking) activity altogether | no blockade could be obtained | 0 |  |  |  |  |  |  | 
2 | CCN(CC)CC(=O)Nc1c(C)cccc1C [lidocaine] |  |  |  |  |  | rapid and complete blockade of the sciatic nerve action potential; also recorded: abolished the CAP with ten minutes |  | absent from the profile of DA rats | a large peak in the elution profile of SD rats, found to consist of a glucuronidated form of 3-OH MEGX | no anti-allodynic effect after termination of motor block | effective against allodynia by the intravenous, but not the intrathecal/regional routes | no effect on allodynia was seen | not similarly susceptible | susceptible to anti-allodynia effects of Lidocaine
